Reference: ChEMBL document CHEMBL3286379, “Design and synthesis of pyrimidine molecules endowed with thiazolidin-4-one as new anticancer agents” (Eur J Med Chem, 2014)

Legend:
[1] = test system: SK-MEL-5; assay: Growth inhibition of human SK-MEL-5 cells after 48 hrs by sulforhodamine B assay; type: functional; settings: SK-MEL-5, 48 h
[2] = test system: SN12C; assay: Growth inhibition of human SN12C cells after 48 hrs by sulforhodamine B assay; type: functional
[3] = test system: HT-29; assay: Growth inhibition of human HT-29 cells after 48 hrs by sulforhodamine B assay; type: functional; settings: HT-29, 48 h
[4] = test system: TK-10; assay: Growth inhibition of human TK10 cells after 48 hrs by sulforhodamine B assay; type: functional; settings: TK-10, 48 h
[5] = test system: NCI-H226; assay: Growth inhibition of human NCI-H226 cells after 48 hrs by sulforhodamine B assay; type: functional; settings: NCI-H226, 48 h
[6] = test system: NCI-H23; assay: Growth inhibition of human NCI-H23 cells after 48 hrs by sulforhodamine B assay; type: functional; settings: NCI-H23, 48 h
[7] = Growth inhibition of human UACC257 cells after 48 hrs by sulforhodamine B assay; type: functional; settings: UACC-257, 48 h
[8] = Growth inhibition of human SF539 cells after 48 hrs by sulforhodamine B assay; type: functional; settings: SF-539, 48 h
[9] = test system: U-251; assay: Growth inhibition of human U251 cells after 48 hrs by sulforhodamine B assay; type: functional; settings: U-251, 48 h
[10] = Growth inhibition of human UO31 cells after 48 hrs by sulforhodamine B assay; type: functional; settings: UO-31, 48 h
[11] = test system: HL-60(TB); assay: Growth inhibition of human HL-60(TB) cells after 48 hrs by sulforhodamine B assay; type: functional; settings: HL-60, 48 h
[12] = Growth inhibition of human OVCAR8 cells after 48 hrs by sulforhodamine B assay; type: functional; settings: OVCAR-8, 48 h
[13] = Growth inhibition of human UACC62 cells after 48 hrs by sulforhodamine B assay; type: functional; settings: UACC-62, 48 h
[14] = test system: ACHN; assay: Growth inhibition of human ACHN cells after 48 hrs by sulforhodamine B assay; type: functional
[15] = Growth inhibition of human OVCAR5 cells after 48 hrs by sulforhodamine B assay; type: functional; settings: OVCAR-5, 48 h
[16] = Growth inhibition of human OVCAR3 cells after 48 hrs by sulforhodamine B assay; type: functional; settings: OVCAR-3, 48 h
[17] = Growth inhibition of human HOP92 cells after 48 hrs by sulforhodamine B assay; type: functional; settings: HOP-92, 48 h
[18] = Growth inhibition of human RXF393 cells after 48 hrs by sulforhodamine B assay; type: functional; settings: RXF 393, 48 h
[19] = test system: Rattus norvegicus; assay: Hepatotoxicity in rat assessed as SGPT level at 0.12 mg/kg, po after 12 days (reference value: 31.17 +/- 0.39 U/mL); type: toxicity, organism-based; set-up: dose 0.12 mg/kg, route oral; settings: in vivo, 288 h
[20] = test system: SW-620; assay: Growth inhibition of human SW620 cells after 48 hrs by sulforhodamine B assay; type: functional; settings: SW-620, 48 h
[21] = test system: K562; assay: Growth inhibition of human K562 cells after 48 hrs by sulforhodamine B assay; type: functional; settings: K562, 48 h
[22] = read-out: LC50 (the source's name)
[23] = read-out: pLC50 (the source's name) (converted)

In the case of Nc1nc(-c2ccccc2Cl)cc(-c2ccc(Cl)cc2Cl)n1, the GI50 ([1]; read-out: GI50) is reported as 4.78 µM, the CC50 [1, 22] is reported as 71.1 µM and the TGI ([1]; read-out: TGI) is reported as 20.8 µM. The GI50 ([1]; read-out: pGI50 (converted)) was 4.79 µM, the CC50 [1, 23] was 70.8 µM and the TGI ([1]; read-out: pTGI (converted)) was 20.9 µM. The GI50 ([2]; read-out: GI50) was 13.1 µM, the CC50 [2, 22] was over 100 µM and the TGI ([2]; read-out: TGI) was over 100 µM. For the same molecule, the GI50 ([2]; read-out: pGI50 (converted)) was 13.2 µM, the CC50 [2, 23] was over 100 µM and the TGI ([2]; read-out: pTGI) was over 100 µM. For the same molecule, the GI50 ([3]; read-out: GI50) was 4.32 µM, the CC50 [3, 22] was over 100 µM and the TGI ([3]; read-out: TGI) was 24.3 µM. For the same molecule, the GI50 ([3]; read-out: pGI50 (converted)) was 4.37 µM, the CC50 [3, 23] was over 100 µM and the TGI ([3]; read-out: pTGI (converted)) was 24.5 µM. The GI50 ([4]; read-out: GI50) was 9.46 µM, the CC50 [4, 22] was over 100 µM and the TGI ([4]; read-out: TGI) was 51 µM. It also gave a GI50 ([4]; read-out: pGI50 (converted)) of 9.55 µM, a CC50 [4, 23] of over 100 µM and a TGI ([4]; read-out: pTGI (converted)) of 51.3 µM. The GI50 ([5]; read-out: GI50) was 81.1 µM, the CC50 [5, 22] was over 100 µM and the TGI ([5]; read-out: TGI) was over 100 µM. The GI50 ([5]; read-out: pGI50 (converted)) was 18.2 µM, the CC50 [5, 23] was over 100 µM and the TGI ([5]; read-out: pTGI) was over 100 µM. The GI50 ([6]; read-out: GI50) was 12.3 µM, the CC50 [6, 22] was over 100 µM and the TGI ([6]; read-out: TGI) was over 100 µM. For the same molecule, the GI50 ([6]; read-out: pGI50 (converted)) was 12.3 µM, the CC50 [6, 23] was over 100 µM and the TGI ([6]; read-out: pTGI) was over 100 µM. The GI50 ([7]; read-out: GI50) was 11.9 µM, the CC50 [7, 22] was over 100 µM and the TGI ([7]; read-out: TGI) was 55.2 µM. It also gave a GI50 ([7]; read-out: pGI50 (converted)) of 11.7 µM, a CC50 [7, 23] of over 100 µM and a TGI ([7]; read-out: pTGI (converted)) of 55 µM. It also gave a GI50 ([8]; read-out: GI50) of 7.39 µM, a CC50 [8, 22] of over 100 µM and a TGI ([8]; read-out: TGI) of 67 µM. It also gave a GI50 ([8]; read-out: pGI50 (converted)) of 7.41 µM, a CC50 [8, 23] of over 100 µM and a TGI ([8]; read-out: pTGI (converted)) of 67.6 µM. The GI50 ([9]; read-out: GI50) was 11.1 µM, the CC50 [9, 22] was over 100 µM and the TGI ([9]; read-out: TGI) was over 100 µM. For the same molecule, the GI50 ([9]; read-out: pGI50 (converted)) was 11.2 µM, the CC50 [9, 23] was over 100 µM and the TGI ([9]; read-out: pTGI) was over 100 µM. The GI50 ([10]; read-out: GI50) was 13.5 µM, the CC50 [10, 22] was over 100 µM and the TGI ([10]; read-out: TGI) was over 100 µM. The GI50 ([10]; read-out: pGI50 (converted)) was 13.5 µM, the CC50 [10, 23] was over 100 µM and the TGI ([10]; read-out: pTGI) was over 100 µM. The GI50 ([11]; read-out: GI50) was 3.14 µM, the CC50 [11, 22] was over 100 µM and the TGI ([11]; read-out: TGI) was 17.3 µM. The GI50 ([11]; read-out: pGI50 (converted)) was 3.16 µM, the CC50 [11, 23] was over 100 µM and the TGI ([11]; read-out: pTGI (converted)) was 17.4 µM. For the same molecule, the GI50 ([12]; read-out: GI50) was 6.87 µM, the CC50 [12, 22] was over 100 µM and the TGI ([12]; read-out: TGI) was over 100 µM. It also gave a GI50 ([12]; read-out: pGI50 (converted)) of 6.92 µM, a CC50 [12, 23] of over 100 µM and a TGI ([12]; read-out: pTGI) of over 100 µM. The GI50 ([13]; read-out: GI50) was 5.93 µM, the CC50 [13, 22] was over 100 µM and the TGI ([13]; read-out: TGI) was 44.2 µM. The GI50 ([13]; read-out: pGI50 (converted)) was 5.89 µM, the CC50 [13, 23] was over 100 µM and the TGI ([13]; read-out: pTGI (converted)) was 44.7 µM. The GI50 ([14]; read-out: GI50) was 10.4 µM, the CC50 [14, 22] was over 100 µM and the TGI ([14]; read-out: TGI) was over 100 µM. For the same molecule, the GI50 ([14]; read-out: pGI50 (converted)) was 10.5 µM, the CC50 [14, 23] was over 100 µM and the TGI ([14]; read-out: pTGI) was over 100 µM. For the same molecule, the GI50 ([15]; read-out: GI50) was 8.09 µM, the CC50 [15, 22] was over 100 µM and the TGI ([15]; read-out: TGI) was over 100 µM. The GI50 ([15]; read-out: pGI50 (converted)) was 8.13 µM, the CC50 [15, 23] was over 100 µM and the TGI ([15]; read-out: pTGI) was over 100 µM. For the same molecule, the GI50 ([16]; read-out: GI50) was 4.05 µM, the CC50 [16, 22] was over 100 µM and the TGI ([16]; read-out: TGI) was 20.7 µM. It also gave a GI50 ([16]; read-out: pGI50 (converted)) of 4.07 µM, a CC50 [16, 23] of over 100 µM and a TGI ([16]; read-out: pTGI (converted)) of 20.9 µM. It also gave a GI50 ([17]; read-out: GI50) of 527 nM, a CC50 [17, 22] of over 100 µM and a TGI ([17]; read-out: TGI) of 7.62 µM. The GI50 ([17]; read-out: pGI50 (converted)) was 525 nM, the CC50 [17, 23] was over 100 µM and the TGI ([17]; read-out: pTGI (converted)) was 7.59 µM. The GI50 ([18]; read-out: GI50) was 2670 nM, the CC50 [18, 22] was over 100 µM and the TGI ([18]; read-out: TGI) was 10.7 µM. The GI50 ([18]; read-out: pGI50 (converted)) was 2690 nM, the CC50 [18, 23] was over 100 µM and the TGI ([18]; read-out: pTGI (converted)) was 10.7 µM. For the same molecule, the Activity [19] was 29.11 U/ml, the GI50 ([20]; read-out: GI50) was 3.41 µM and the CC50 [20, 22] was over 100 µM. The TGI ([20]; read-out: TGI) was over 100 µM, the GI50 ([20]; read-out: pGI50 (converted)) was 3.39 µM and the CC50 [20, 23] was over 100 µM. For the same molecule, the TGI ([20]; read-out: pTGI) was over 100 µM, the GI50 ([21]; read-out: GI50) was 3.97 µM and the CC50 [21, 22] was over 100 µM. It also gave a TGI ([21]; read-out: TGI) of over 100 µM, a GI50 ([21]; read-out: pGI50 (converted)) of 3.98 µM and a CC50 [21, 23] of over 100 µM. For the same molecule, the TGI ([21]; read-out: pTGI) was over 100 µM.
